One substance from patent US8318172B2, “Breaking immunological tolerance with a genetically encoded unnatural amino acid” (The Scripps Research Institute, priority 2008, dated 2012) can be followed below.

Assay [1] in a line: TR-FRET retinol binding assay of mRBP4 proteins. As to conditions: retinol binding affinities of mRBP4 proteins. The method, then: The binding affinities of mRBP4 proteins were determined by a TR-FRET retinol binding assay.
WT and pNO2Phe mRBP4 mutant proteins were labeled with biotin using the Sulfo-NHS-Biotin kit (Pierce, Rockford, Ill.) according to manufacturer instructions. For determination of retinol binding activity, 10 nM biotin-labeled RBP4 was mixed with 1 nM Streptavidin-Europium chelate (LANCE® Eu-W8044 Streptavidin, Perkin Elmer, Foster City, Calif.). Increasing concentrations of Cy5-labeled retinol were added to the reaction and retinol binding was assessed by homogeneous time-resolved fluorescence resonance energy transfer (TR-FRET).

The target of assay [2] is T1, WT mRBP4 (Mus musculus, UniProt Q00724).
T1 construct: The cDNA encoding murine RBP4 (aa 19-201); made in house; host or cells: E. coli BL21(DE3)
In words: Immunization of mice with mRBP4 variants (RIMMS), serum IgG titers by ELISA. In kind it is in vivo. Particulars: Bcl2 mice (FIG. 19), C57BL/6 mice (FIG. 26), RIMMS protocol. On the procedure:
30 μl of 0.5 μg/ml protein was used to coat the wells of Maxisorp 384-well plates (Nunc, Rochester, N.Y.) overnight at 4° C. After washing with PBS+0.05% Tween 20 (PBST), the coated plates were blocked with 80 μl of 1% BSA in PBS, and washed again with PBST. The plates were sequentially incubated with 20 μl of primary antibody or serum diluted in 1% BSA in PBS, 20 μl of HRP-conjugated goat anti-mouse IgG or anti-mouse IgM (Jackson ImmunoResearch Laboratories, West Grove, Pa.), and 20 μl of TMB substrate (KPL, Gaithersburg, Md.), and read at an absorbance of 650 nm. Between incubations, the plates were washed at least six times with PBST.
Before measurement, serum samples were diluted 1:1,000 with 1% BSA in PBS buffer.

For “WT mRBP4: wild-type murine retinol binding protein 4, N-terminal His6-tagged, expressed in E. coli”, the Kd in assay [1] is 0.171 µM. The “serum IgG titers against WT mRBP4” value in assay [2] was “insignificant serum IgG titers”.
